Measured values from US12471620B2, “Use of isothiocyanate in smokeless tobacco products” (Gamot Global Pte. Ltd., priority 2019, dated 2025).

Tested on: A549 cells
Test: CellEvent Caspase 3/7 green detection assay of apoptosis, brightfield and fluorescent imaging
Type: cell-based, human
Settings: for concentration at which exponentially more cells undergo apoptosis than at lower concentrations: at 48 hours (AITC, combinations) or earlier than at lower concentrations; for induction of cell death (apoptosis): daily treatment, imaged at 24 to 96 hours (combinations up to 72 hours)
Description: A549 cells were plated into 48 well culture plates at a density of 3.0×10^4 cells/cm^2. Cells were dissociated with 0.05% trypsin EDTA following a 5-minute incubation at 37° C., neutralized in a 1:1 ratio of standard medium and counted using a hemocytometer prior to plating. All wells were settled overnight prior to addition of one of the following treatment compounds: AITC, PEITC, Thymoquinone, or Resveratrol. All treatments were performed within 24 hours following initial plating.
Treatment of the A549 cells occurred at the following time points and concentrations: AITC—25 μM, 50 μM and 100 μM for 24, 48 and 96 hours. PEITC—25 μM, 50 μM, 100 μM and 200 μM for 24, 48 and 96 hours. TQ—25 μM, 50 μM, 10 0 μM and 200 μM for 24, 48 and 96 hours. Resveratrol—25 μM, 50 μM and 100 μM for 48 and 96 hours. DMSO was used to dissolve each compound, and cells treated with DMSO without any of tested compounds served as a control. Treated cells received daily treatments using the same concentrations until the last time point of the experiment.
Apoptosis was detected using the CellEvent Caspase 3/7 green detection kit/assay from Thermofisher Scientific. Cells were incubated with diluted assay reagent for 30 minutes at 37° C. prior to analysis, and imaged by a brightfield and a fluorescent microscopes.
CellEvent Caspase-3/7 Green Detection Reagent is intrinsically non-fluorescent, as the four amino acid peptide (DEVD peptide) inhibits the ability of the dye to bind to DNA. However, following activation of caspase-3/7 in apoptotic cells, the DEVD peptide is cleaved, enabling the dye to bind to DNA and produce a bright, fluorogenic response. The fluorescent emission of the dye ˜530 can be observed under a fluorescent microscope.

SMILES	concentration at which exponentially more cells undergo apoptosis than at lower concentrations [µM]	induction of cell death (apoptosis)	apoptotic effect at 25 μM relative to higher concentrations (25 μM)	onset of apoptotic effects (effects only observed at 48 and 96 hours)
C=CCN=C=S [AITC, Allyl Isothiocyanate]	≥ 50	induces cancer cell death		
Oc1ccc(C=Cc2cc(O)cc(O)c2)cc1 [Resveratrol]	≥ 50	induces cell death	reduced	delayed relative to other compounds
CC1=CC(=O)C(C(C)C)=CC1=O [Thymoquinone]	≥ 100	induces cell death		
